Laboratory results taken from ChEMBL document CHEMBL1201862, “PubChem BioAssay data set” (2004).
Each block holds one compound with its values, some of them ahead of it. The source made the active and inactive calls.

Experiments:
[1] = target: T1, RNA-binding protein pos-1 (Caenorhabditis elegans, UniProt G5EF15); assay: inhibitors of POS-1/mex-3 RNA binding, dose response, biochemical, fluorescence polarization (AID 1964);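 note: purified POS-1 fused to maltose binding protein made in E. coli; potency of compounds blocking POS-1 binding to fluorescent RNA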
T1 sequence (G5EF15 whole entry): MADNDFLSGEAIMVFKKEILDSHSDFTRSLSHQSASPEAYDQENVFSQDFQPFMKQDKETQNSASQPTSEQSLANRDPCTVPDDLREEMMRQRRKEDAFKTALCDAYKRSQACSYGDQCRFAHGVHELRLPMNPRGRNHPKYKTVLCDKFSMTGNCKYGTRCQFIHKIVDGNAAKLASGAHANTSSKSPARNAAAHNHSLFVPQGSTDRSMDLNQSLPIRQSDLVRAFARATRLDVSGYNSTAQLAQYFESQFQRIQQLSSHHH

BJ [2] = assay: cytotoxicity toward BJ-TERT fibroblasts, dose response, cell-based, RAS-independent, luminescence (AID 1933); type: functional; details: Homo sapiens
[3] = target: T2, Zinc finger protein mex-5 (Caenorhabditis elegans, UniProt Q9XUB2); assay: MEX-5/TCR-2 RNA interaction inhibitors, dose response, biochemical, C. elegans, fluorescence polarization (AID 1960)
T2 sequence (Q9XUB2 whole entry): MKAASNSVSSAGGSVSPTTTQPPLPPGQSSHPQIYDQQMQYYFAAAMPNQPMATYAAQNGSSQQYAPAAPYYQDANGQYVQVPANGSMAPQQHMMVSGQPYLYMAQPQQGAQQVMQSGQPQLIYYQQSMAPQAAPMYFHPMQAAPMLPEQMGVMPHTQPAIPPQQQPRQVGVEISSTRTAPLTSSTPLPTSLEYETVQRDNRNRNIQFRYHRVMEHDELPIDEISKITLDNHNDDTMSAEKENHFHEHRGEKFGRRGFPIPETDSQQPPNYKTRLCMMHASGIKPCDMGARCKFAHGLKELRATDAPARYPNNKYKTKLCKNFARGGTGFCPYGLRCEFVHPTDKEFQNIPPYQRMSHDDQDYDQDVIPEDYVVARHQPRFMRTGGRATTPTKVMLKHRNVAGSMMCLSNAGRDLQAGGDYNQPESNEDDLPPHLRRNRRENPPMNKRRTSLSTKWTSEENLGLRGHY

BJ [4] = assay: cells; type: functional, cell-based; details: Homo sapiens
Large T antigen = Large T antigen (Simian virus 40, UniProt P03070); type: functional, Betapolyomavirus macacae;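 note: Confirmatory-stage PubChem screen for compounds that inhibit SV40 T antigen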
Large T antigen, sequence (P03070 whole entry): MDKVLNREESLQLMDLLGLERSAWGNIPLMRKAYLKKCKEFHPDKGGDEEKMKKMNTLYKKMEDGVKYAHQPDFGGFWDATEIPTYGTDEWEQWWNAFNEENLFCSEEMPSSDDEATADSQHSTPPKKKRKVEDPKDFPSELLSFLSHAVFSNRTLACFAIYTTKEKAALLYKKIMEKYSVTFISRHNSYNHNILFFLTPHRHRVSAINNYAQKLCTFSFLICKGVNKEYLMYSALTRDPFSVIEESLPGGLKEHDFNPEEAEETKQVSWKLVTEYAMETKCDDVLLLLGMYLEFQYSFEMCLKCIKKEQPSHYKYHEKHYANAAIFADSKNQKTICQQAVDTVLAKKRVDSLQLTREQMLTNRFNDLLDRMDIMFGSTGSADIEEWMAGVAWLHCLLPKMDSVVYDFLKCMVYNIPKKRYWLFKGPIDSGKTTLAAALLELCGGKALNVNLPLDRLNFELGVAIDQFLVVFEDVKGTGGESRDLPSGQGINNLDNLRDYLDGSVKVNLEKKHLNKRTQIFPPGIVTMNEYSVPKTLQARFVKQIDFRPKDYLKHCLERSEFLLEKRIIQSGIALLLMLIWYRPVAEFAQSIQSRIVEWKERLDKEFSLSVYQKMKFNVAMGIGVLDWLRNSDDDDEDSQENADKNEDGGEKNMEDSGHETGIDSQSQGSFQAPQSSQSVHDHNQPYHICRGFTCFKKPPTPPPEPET

Estrogen receptor beta [5] = target: T3, Estrogen receptor beta (Homo sapiens, UniProt Q92731);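 note: recombinant ER-beta bound to coactivator SRC1 peptide in presence of estradiol agonist; inhibitors block coactivator peptide binding and lower the FRET signal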
T3 sequence (Q92731 whole entry): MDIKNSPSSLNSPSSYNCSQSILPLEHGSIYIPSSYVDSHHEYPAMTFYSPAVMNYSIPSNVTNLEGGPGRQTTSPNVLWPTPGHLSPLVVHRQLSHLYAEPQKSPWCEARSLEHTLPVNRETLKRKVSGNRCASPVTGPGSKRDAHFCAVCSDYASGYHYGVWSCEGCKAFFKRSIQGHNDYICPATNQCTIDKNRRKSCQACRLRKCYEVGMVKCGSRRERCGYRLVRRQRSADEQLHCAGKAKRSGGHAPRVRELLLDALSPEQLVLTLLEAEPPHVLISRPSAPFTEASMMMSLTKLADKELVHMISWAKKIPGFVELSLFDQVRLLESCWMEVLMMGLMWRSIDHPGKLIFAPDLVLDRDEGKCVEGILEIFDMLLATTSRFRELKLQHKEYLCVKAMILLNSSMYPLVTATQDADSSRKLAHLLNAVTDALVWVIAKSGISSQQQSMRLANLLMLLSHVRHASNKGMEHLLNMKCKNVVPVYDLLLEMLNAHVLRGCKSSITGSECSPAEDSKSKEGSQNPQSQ

Estrogen receptor beta [6] = target: T3, Estrogen receptor beta; assay: ERβ–SRC-3 coactivator interaction inhibitors, confirmation, orthogonal assay, biochemical, ELISA, streptavidin-HRP readout (AID 1060)
BJ [7] = assay: cytotoxicity toward BJ-TERT-LT-ST fibroblasts, dose response, cell-based, RAS-independent, luminescence (AID 1935); type: functional; details: Homo sapiens;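 note: BJ fibroblasts immortalized with TERT plus LT and ST oncogenes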
[8] = cytotoxicity toward DRD oncogenic fibroblasts, dose response, cell-based, non-viral oncogenic, luminescence (AID 1934); type: functional; details: Homo sapiens
[9] = target: Cyclin-dependent kinase 5/CDK5 activator 1 (Homo sapiens, UniProt Q00535); assay: CDK5/p35 kinase inhibitors, dose response, biochemical, cherry-picked samples, set 2 (AID 504545)
Cyclin-dependent kinase 5/CDK5 activator 1, sequence (Q00535 whole entry): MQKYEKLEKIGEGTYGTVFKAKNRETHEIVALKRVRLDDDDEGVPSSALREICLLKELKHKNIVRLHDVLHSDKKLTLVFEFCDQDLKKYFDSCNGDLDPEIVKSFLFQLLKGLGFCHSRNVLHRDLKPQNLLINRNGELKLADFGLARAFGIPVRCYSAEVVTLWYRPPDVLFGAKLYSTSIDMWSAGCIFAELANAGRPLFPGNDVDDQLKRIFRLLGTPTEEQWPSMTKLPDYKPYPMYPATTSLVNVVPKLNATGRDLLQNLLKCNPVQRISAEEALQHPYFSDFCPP
Cyclin-dependent kinase 5/CDK5 activator 1, sequence (Q15078 whole entry, further chain): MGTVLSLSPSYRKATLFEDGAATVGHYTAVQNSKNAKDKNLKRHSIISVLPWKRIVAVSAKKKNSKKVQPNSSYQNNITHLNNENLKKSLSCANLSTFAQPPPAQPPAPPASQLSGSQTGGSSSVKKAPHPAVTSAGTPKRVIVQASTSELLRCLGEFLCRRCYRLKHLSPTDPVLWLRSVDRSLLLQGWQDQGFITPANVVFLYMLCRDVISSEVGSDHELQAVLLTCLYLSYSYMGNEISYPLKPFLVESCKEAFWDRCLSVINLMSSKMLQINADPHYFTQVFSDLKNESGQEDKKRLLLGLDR

[10] = target: FAD-linked sulfhydryl oxidase ALR (Homo sapiens, UniProt P55789); assay: inhibitors of human ALR sulfhydryl oxidase, dose response, biochemical, H2O2 detection, luminescence, cherry-pick (AID 493248)
FAD-linked sulfhydryl oxidase ALR, sequence (P55789 whole entry): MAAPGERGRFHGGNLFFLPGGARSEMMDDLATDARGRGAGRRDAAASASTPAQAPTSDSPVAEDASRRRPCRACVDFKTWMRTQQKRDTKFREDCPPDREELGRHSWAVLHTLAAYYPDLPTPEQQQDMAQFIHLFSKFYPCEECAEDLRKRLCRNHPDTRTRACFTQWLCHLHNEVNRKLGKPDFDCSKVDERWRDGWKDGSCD

[11] = target: Dual specificity tyrosine-phosphorylation-regulated kinase 1A (Rattus norvegicus, UniProt Q63470); type: biochemical, Homo sapiens
[12] = Shn3 3'UTR reporter inhibitors, dose response, cell-based, Clone20 osteoblasts, firefly luciferase, cherry-picked (AID 624132); type: functional;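 note: firefly luciferase luminescence from reporter carrying the Shn3 3'UTR in osteoblasts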
[13] = HepG2 cell cytotoxicity, dose response, cytotoxicity control for Shn3 inhibitor project, CellTiter-Glo, cherry-picked (AID 624134); type: functional, cell-based
[14] = control 3'UTR Renilla luciferase suppression, dose response, counter-screen for Shn3 inhibitor project, cell-based, Clone20-Shn3RL, cherry-picked (AID 624133); type: functional
[15] = miR-122 activators in hepatoma reporter cells, dose response, cell-based, Huh7 psiCHECK-miR122, Renilla luciferase, cherry-picked (AID 651956); type: functional;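 note: huh7 hepatoma cells stably carrying a psiCHECK-2 miR-122 sensor plasmid; renilla luciferase signal reporting endogenous miR-122 activity after 48 h compound exposure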
[16] = HEK293T cytotoxicity, dose response, cytotoxicity control for miR-122 modulator project, cell-based, inhibitor set, cherry-pick, set 2 (AID 720697); type: functional
[17] = target: T4, Delta-type opioid receptor (Homo sapiens, UniProt P41143); assay: HTS Image-Based Screen for Antagonists of the DOR Receptor. [Related pubchem assays (depositor defined):AID1777, AID1785, AID1786, AID2133]; type: functional
T4 sequence (P41143 whole entry): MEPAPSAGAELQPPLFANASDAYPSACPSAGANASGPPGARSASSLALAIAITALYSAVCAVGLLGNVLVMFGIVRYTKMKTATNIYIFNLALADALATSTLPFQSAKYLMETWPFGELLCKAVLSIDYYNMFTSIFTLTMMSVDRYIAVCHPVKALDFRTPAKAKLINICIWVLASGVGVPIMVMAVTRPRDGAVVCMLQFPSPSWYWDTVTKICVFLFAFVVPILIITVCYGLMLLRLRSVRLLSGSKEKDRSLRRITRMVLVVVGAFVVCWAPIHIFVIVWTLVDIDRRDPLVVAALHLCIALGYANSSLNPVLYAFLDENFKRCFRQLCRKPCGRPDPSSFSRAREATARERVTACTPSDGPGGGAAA

Mu-type opioid receptor = Mu-type opioid receptor (Homo sapiens, UniProt P35372); assay: HTS Image-Based Screen for Agonists of the MOR Receptor. [Related pubchem assays (depositor defined):AID1777, AID1785, AID1786, AID2133]; type: functional;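 note: imaging of beta-arrestin GFP recruitment into spots after receptor activation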
Mu-type opioid receptor, sequence (P35372 whole entry): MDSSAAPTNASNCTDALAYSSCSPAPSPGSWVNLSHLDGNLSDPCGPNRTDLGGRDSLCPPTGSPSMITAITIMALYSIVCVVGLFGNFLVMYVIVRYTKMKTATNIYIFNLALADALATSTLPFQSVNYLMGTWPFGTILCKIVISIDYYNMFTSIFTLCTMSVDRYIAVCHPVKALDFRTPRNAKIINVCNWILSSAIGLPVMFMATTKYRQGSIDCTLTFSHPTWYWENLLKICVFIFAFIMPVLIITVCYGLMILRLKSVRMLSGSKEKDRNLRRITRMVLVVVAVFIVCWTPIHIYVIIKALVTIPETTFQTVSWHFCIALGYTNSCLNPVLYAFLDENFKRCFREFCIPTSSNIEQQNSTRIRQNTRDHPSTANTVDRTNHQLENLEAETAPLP

[18] = target: T4, Delta-type opioid receptor; assay: HTS Image-Based Screen for Agonists of the DOR Receptor. [Related pubchem assays (depositor defined):AID1777, AID1786, AID2133]; type: functional
[19] = target: T5, Kappa-type opioid receptor (Homo sapiens, UniProt P41145); type: functional
T5 sequence (P41145 whole entry): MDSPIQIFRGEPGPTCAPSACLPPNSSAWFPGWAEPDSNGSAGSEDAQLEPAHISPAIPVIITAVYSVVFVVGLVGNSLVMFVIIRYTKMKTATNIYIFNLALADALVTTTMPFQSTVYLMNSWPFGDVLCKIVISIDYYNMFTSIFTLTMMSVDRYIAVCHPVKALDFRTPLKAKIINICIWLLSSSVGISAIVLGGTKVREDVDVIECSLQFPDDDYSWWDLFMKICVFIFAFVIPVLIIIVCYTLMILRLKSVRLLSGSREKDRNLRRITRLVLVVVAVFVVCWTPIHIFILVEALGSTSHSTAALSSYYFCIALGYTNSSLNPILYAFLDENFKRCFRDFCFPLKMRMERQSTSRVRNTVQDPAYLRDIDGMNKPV

[20] = target: T5, Kappa-type opioid receptor; type: functional; remark: listed apart in the source
[21] = target: Scavenger receptor class B member 1 (Mus musculus, UniProt Q61009); assay: inhibitors of SR-BI mediated HDL lipid uptake, dose response, ldlA[mSR-BI] cells, fluorescence, cherry pick (AID 493194); type: functional, cell-based;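 note: cellular uptake of fluorescent DiI-labeled HDL measured as cell fluorescence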
Scavenger receptor class B member 1, sequence (Q61009 whole entry): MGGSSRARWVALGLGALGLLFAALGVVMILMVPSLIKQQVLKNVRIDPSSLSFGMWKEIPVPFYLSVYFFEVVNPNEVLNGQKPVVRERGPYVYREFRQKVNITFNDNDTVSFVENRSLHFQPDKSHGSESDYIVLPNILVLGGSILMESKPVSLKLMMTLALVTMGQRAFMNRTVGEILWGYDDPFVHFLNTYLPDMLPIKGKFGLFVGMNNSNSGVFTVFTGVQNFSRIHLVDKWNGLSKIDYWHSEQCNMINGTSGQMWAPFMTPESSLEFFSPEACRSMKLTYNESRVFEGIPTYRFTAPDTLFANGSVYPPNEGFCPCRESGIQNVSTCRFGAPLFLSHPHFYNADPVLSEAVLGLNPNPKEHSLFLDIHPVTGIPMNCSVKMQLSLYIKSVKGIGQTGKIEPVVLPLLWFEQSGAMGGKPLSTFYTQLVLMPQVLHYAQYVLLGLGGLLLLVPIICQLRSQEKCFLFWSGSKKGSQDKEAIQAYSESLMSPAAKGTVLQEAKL

[22] = target: Neurotensin receptor type 1 (Homo sapiens, UniProt P30989); type: functional;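 note: Image-based confirmatory dose-response assay measuring agonist activity at NTR1; NTR1-expressing U2OS osteosarcoma cells imaged for beta-arrestin GFP spot formation; agonist potency where compounds increase beta-arrestin recruitment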
Neurotensin receptor type 1, sequence (P30989 whole entry): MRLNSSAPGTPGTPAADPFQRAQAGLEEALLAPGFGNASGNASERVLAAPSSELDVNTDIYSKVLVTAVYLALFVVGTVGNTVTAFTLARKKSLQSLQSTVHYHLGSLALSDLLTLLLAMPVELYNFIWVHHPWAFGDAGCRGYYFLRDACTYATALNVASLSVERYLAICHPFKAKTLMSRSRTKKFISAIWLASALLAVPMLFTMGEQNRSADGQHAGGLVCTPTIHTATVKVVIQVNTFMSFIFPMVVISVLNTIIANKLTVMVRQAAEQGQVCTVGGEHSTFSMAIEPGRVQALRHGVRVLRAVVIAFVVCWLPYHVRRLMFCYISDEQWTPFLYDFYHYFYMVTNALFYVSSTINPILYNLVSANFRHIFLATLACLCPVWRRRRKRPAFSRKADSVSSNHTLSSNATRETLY

INS1 = assay: beta cell apoptosis inhibitors, cytokine rescue, dose response, luminescence, retest (AID 449756); type: functional, cell-based; details: Rattus norvegicus;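 note: cell death triggered by IL-1 beta plus TNF-alpha plus IFN-gamma mixture; protective hits raise ATP signal compared with cytokine alone wells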
Wee1-like protein kinase = Wee1-like protein kinase (Homo sapiens, UniProt P30291); assay: G2/M cell cycle arrest in HeLa, late-stage follow-up, mechanism study for Wee1 degradation inhibitor project, FACS, panel member Wee1 Degradation (AID 2088)
[23] = target: G2/mitotic-specific cyclin-B1 (Homo sapiens, UniProt P14635); assay: G2/M cell cycle arrest in HeLa, late-stage follow-up, mechanism study for Wee1 degradation inhibitor project, FACS, panel member Cyclin B Degradation (AID 2088)
G2/mitotic-specific cyclin-B1, sequence (P14635 whole entry): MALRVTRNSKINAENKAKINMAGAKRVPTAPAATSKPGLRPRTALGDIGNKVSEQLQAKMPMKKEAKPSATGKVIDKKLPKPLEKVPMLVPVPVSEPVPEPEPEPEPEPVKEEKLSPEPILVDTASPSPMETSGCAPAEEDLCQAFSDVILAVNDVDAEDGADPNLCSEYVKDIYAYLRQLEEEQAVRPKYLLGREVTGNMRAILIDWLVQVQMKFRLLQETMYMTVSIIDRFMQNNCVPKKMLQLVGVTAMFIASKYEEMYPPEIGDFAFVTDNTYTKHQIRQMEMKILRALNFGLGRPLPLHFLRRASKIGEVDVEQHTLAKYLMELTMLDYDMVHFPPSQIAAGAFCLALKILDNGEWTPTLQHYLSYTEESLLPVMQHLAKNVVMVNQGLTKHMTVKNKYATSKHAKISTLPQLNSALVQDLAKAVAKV

Structure (SMILES): Oc1ccc(-c2nc(-c3ccc(O)c(O)c3)cs2)cc1
EC50 [1]: 33.5 µM (active)
EC50 (BJ [2]): 2.89 µM (inconclusive)
EC50 [3]: 20.8 µM (inconclusive)
EC50 (BJ [4]): 41.4 µM (active)
IC50 (Large T antigen): 36.1 µM (active)
IC50 (Estrogen receptor beta [5]): 4.96 µM (active)
IC50 (Estrogen receptor beta [6]): 90.7 µM (not active)
EC50 (BJ [7]): > 150 µM (not active)
EC50 [8]: 2.67 µM (inconclusive)
AC50 [9]: 23.5 µM (active)
AC50 [10]: 1.22 µM (active)
AC50 [11]: 3.19 µM (active)
AC50 [12]: 5.07 µM (active)
AC50 [13]: > 70 µM (inactive)
AC50 [14]: 5.09 µM (active)
AC50 [15]: 29 µM (active)
AC50 [16]: 1.31 µM (active)

IC50 [17]: > 32 µM (inactive)
EC50 (Mu-type opioid receptor): > 32 µM (inactive)
EC50 [18]: > 32 µM (inactive)
EC50 [19]: 14 µM
EC50 [20]: 13.1 µM
Structure (SMILES): Cc1ccc(Cl)cc1NC(=S)N(Cc1cccs1)C1CCCC1

AC50 [21]: 1.04 µM (active)
Structure (SMILES): Cc1ccccc1NC(=O)NCC1CCN(c2ccc(S(=O)(=O)N3CCOCC3)cc2)CC1

Structure (SMILES): c1ccc(C(c2ccccc2)N2CCN(c3nc4ccccc4n4cnnc34)CC2)cc1
EC50 [22]: 26.4 µM (inactive)
AC50 (INS1): 4.56 µM (active)

EC50 (Wee1-like protein kinase): > 49.7 µM (inactive)
EC50 [23]: > 49.7 µM (inactive)
Structure (SMILES): Cc1cc(O)nc(-n2nc(C)cc2NC(=O)c2cccc(Br)c2)n1
